Here are results for three compounds from patent US20250241297A1, “TERNARY SOLVENT SYSTEMS FOR STABLE PLANT GROWTH REGULATOR FORMULATIONS” (priority 2024, published 2025).

Data set [1] in a line: Storage stability of aqueous formulation CE1, PGR content after 1 year. The format is physicochemical. The note with it: in aqueous formulation CE1, 1 year of storage. As for the experimental part:
Comparative Example 1: A combination of three PGRs (kinetin, GA3, and IBA) were dissolved in water along with a defoamer and a phosphate ester surfactant at the ratios specified in Table CE1: […] This is typical behavior for an aqueous system containing these PGRs.

Data set [2] can be described thus: Solubility of PGRs in solvents. From the text: In some examples, the ratios of the plurality of non-aqueous solvents may be selected based on a relative amount and type of PGR compound selected for the agrochemical formulation. For example, an amount (e.g., vol. %) of a high dielectric solvent may be selected to fully dissolve selected amounts (e.g., vol. %) of one or more PGRs of the plurality of selected PGRs, which may only be soluble, or at least more soluble in, the high dielectric solvent. Additionally, an amount of (e.g., vol. %) of a medium dielectric solvent and/or a low dielectric solvent may be selected for similar reasons.

Data set [3] can be described thus: Accelerated aging test of formulation E1, 54° C. for 2 weeks. The format is physicochemical. The note with it: for 2-Weeks at 54° C.: in formulation E1, after 2 weeks at 54° C.; for Initial Assay: in formulation E1, before accelerated aging; for Percent Change: in formulation E1, initial vs 2 weeks at 54° C. As for the experimental part:
Example 1 (E1): A combination of three PGRs (kinetin, GA3, and IBA) were dissolved in a ternary solvent system containing a high dielectric solvent (DMSO), a medium dielectric solvent (HALLCOMID® M-8-10), and a low dielectric solvent (methyl soyate) with surfactants (ETHOX® CO-40 and ETHFAC® 140) at the ratios specified in Table E1:
The formulation was tested in an accelerated aging test by storing the sample at 54° C. for 2 weeks and measuring the content of the PGRs before and after testing. This was to follow the EPA's Office of Pesticide Programs guidelines for product chemistry and stability.
Table 2 illustrates initial formulation stability and stability at two-weeks as a percentage change in the amount (vol. %) of each PGR: […]

For data set [4] the following is noted: cited from earlier work.

Read-outs that look alike come from different tables or passages of the source.

Regarding `c1coc(CNc2ncnc3[nH]cnc23)c1` [kinetin], in data set [1], the “detected level of active ingredient after 1 year of storage” value (“detected level of active ingredient” for short) came to 0.0015% and the “loss of active ingredient after 1 year of storage” value (“loss of active ingredient” below) is on record as 83%. For the same compound, in data set [2], the “solubility in DMSO” value came to 3.3% and the “solubility in vegetable oil or modified vegetable oil solvents” value is listed as “virtually insoluble”. Moreover, in data set [3], the “2-Weeks at 54° C.” value worked out at 0.090%, the “Initial Assay” value came out at 0.099% and the “Percent Change” value turned out to be 9.09%.

Regarding `C=C1C[C@]23C[C@@]1(O)CC[C@H]2[C@@]12C=C[C@H](O)[C@@](C)(C(=O)O1)[C@@H]2[C@@H]3C(=O)O` [GA3, (3S,3aS,4S,4aS,7S,9aR,9bR,12S)-7,12-Dihydroxy-3-methyl-6-methylene-2-oxoperhydro-4a,7-methano-9b,3-propenoazuleno[1,2-b]furan-4-carboxylic acid], in data set [1], the “detected level of active ingredient” value is on record as 0.0005% and the “loss of active ingredient” value amounted to 91%. For the same compound, the “solubility in DMSO” value in data set [2] (DMSO) was 1.5%. Besides, the “solubility in vegetable oil or modified vegetable oil solvents” value in data set [2] (vegetable oil or modified vegetable oil solvents) is reported as “virtually insoluble”. Moreover, in data set [3], the “2-Weeks at 54° C.” value is recorded as 0.055%, the “Initial Assay” value was 0.058% and the “Percent Change” value was determined as 5.17%.

As to `O=C(O)CCCc1c[nH]c2ccccc12` [IBA, indole-3-butyric acid], in data set [1], the “detected level of active ingredient” value was “not detected” and the “loss of active ingredient” value is on record as 100%. Further, in data set [3], the “2-Weeks at 54° C.” value turned out to be 0.047%, the “Initial Assay” value is given as 0.047% and the “Percent Change” value came to 0.00%. Moreover, the “chemical breakdown in water” value in data set [4] is “facilitates the chemical breakdown”.
